{"source": "patent EP2951180B1", "about": "“2,6,7,8 SUBSTITUTED PURINES AS HDM2 INHIBITORS” (Merck Sharp & Dohme Corp., priority 2013, dated 2014)", "biological_target": "T1, HDM2 (Homo sapiens, UniProt Q00987)", "T1 construct": "Thioredoxin (N); made in house; host or cells: E. coli strain BL21(DE3)Rosetta", "T1 sequence (Q00987 17-125)": "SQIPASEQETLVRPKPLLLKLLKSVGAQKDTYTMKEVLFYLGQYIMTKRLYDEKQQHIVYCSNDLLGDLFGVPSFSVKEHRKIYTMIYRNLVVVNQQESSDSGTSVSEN", "test": "HDM2 FRET assay (inhibition of binding of FITC labeled p53-pocket peptide to HDM2)", "conditions": "for IC50: read-out: FRET IC50", "summary_of_the_method": "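Compounds were tested in 10-point serial dilution against 0.5 nM recombinant HDM2 binding 3 nM fluorescein-labeled p53-pocket peptide. Detection used 0.25 nM terbium cryptate anti-6xHis antibody in PBS buffer containing 0.01% BSA and 0.01% Tween-20.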", "key": {"[1]": {"conditions": "0.5 nM HDM2 (residues 17 to 125), 3nM peptide, two hour incubation at room temperature"}}, "note": "Like-named read-outs stand apart in the source and are kept apart here.", "data": [{"smiles": "CCCC(CCC)Nc1nc(C(=O)O)nc2nc(-c3cccc(C)c3)n(Cc3ccc(C(F)(F)F)cc3)c12", "note": "[Example 6.64, 8-(3-methylphenyl)-6-[(1-propylbutyl)amino]-7-[4-(trifluoromethyl)benzyl]-7H-purine-2-carboxylic acid]", "values": [{"measurement": "IC50", "setting": "Table 6", "result": 920, "unit": "nM"}]}, {"smiles": "Cc1cccc(-c2nc3nc(C(=O)O)nc(NC(C)(C)C4CC4)c3n2Cc2ccc(Cl)cc2)c1", "note": "[Example 6.6, 7-(4-chlorobenzyl)-6-[(1-cyclopropyl-1-methylethyl)amino]-8-(3-methylphenyl)-7H-purine-2-carboxylic acid]", "values": [{"measurement": "IC50", "setting": "Table 6", "result": 1650, "unit": "nM"}]}, {"smiles": "Cc1cccc(-c2nc3nc(C(=O)O)nc(NC(C)C(C)C)c3n2Cc2ccc(C(F)(F)F)cc2)c1", "note": "(stereo not drawn) [Example 6.73, 6-[(1,2-dimethylpropyl)amino]-8-(3-methylphenyl)-7-[4-(trifluoromethyl)benzyl]-7H-purine-2-carboxylic acid]", "values": [{"measurement": "IC50", "setting": "Table 6", "result": 437, "unit": "nM"}]}, {"smiles": "C[C@@H](Nc1nc(C(=O)O)nc2nc(C3(c4ccccc4)CCC3)n(C[C@H]3CC[C@H](C)CC3)c12)C1CCC1", "note": "[Example 20.1, 6-{[(1R)-1-cyclobutylethyl]amino}-7-[(trans-4-methylcyclohexyl)methyl]-8-(1-phenylcyclobutyl)-7H-purine-2-carboxylic acid]", "values": [{"measurement": "IC50", "setting": "Table 20", "result": 1.46, "unit": "nM"}]}, {"smiles": "CC(O)c1nc2nc(C(=O)O)nc(N[C@H](C)C3CCC3)c2n1Cc1ccc(C(F)(F)F)cc1", "note": "(stereo partly drawn) [Example 10.7, 6-(((R)-1-Cyclobutylethyl)amino)-8-(1-hydroxyethyl)-7-(4-(trifluoromethyl)benzyl)-7H-purine-2-carboxylic acid]", "values": [{"measurement": "IC50", "setting": "Table 10", "result": 140, "unit": "nM"}]}, {"smiles": "C#CCC1CN(c2nc3nc(C(=O)O)nc(N[C@H](C)C4CCC4)c3n2Cc2ccc(C(F)(F)F)cc2)CCO1", "note": "(stereo partly drawn) [Example 9.26, 6-{[(1R)-1-cyclobutylethyl]amino}-8-(2-prop-2-yn-1-ylmorpholin-4-yl)-7-[4-(trifluoromethyl)benzyl]-7H-purine-2-carboxylic acid]", "values": [{"measurement": "IC50", "setting": "Table 9", "result": 34.2, "unit": "nM"}]}, {"smiles": "C[C@H]1CC[C@H](Cn2c(C3(F)COC3)nc3nc(-c4noc(=O)[nH]4)nc(-c4cncc(Cl)c4)c32)CC1", "note": "[Example 23.28, 3-{6-(5-chloropyridin-3-yl)-8-(3-fluorooxetan-3-yl)-7-[(trans-4-methylcyclohexyl)methyl]-7H-purin-2-yl}-1,2,4-oxadiazol-5(4H)-one]", "values": [{"measurement": "IC50", "setting": "Table 23", "result": 62.8, "unit": "nM"}]}, {"smiles": "CC(c1ccccc1)c1nc2nc(-c3noc(=O)[nH]3)nc(N[C@H](C)C3CCC3)c2n1C[C@H]1CC[C@H](C)CC1", "note": "(single isomer, unassigned) [Example 21.14]", "values": [{"measurement": "IC50", "setting": "Table 21", "result": 19.8, "unit": "nM"}]}, {"smiles": "C[C@@H](Nc1nc(C(=O)O)nc2nc(N3CCCC(c4ccccc4)C3)n(Cc3ccc(C(F)(F)F)cc3)c12)C1CCC1", "note": "(stereo partly drawn) [Example 9.41, 6-{[(1R)-1-cyclobutylethyl]amino}-8-(3-phenylpiperidin-1-yl)-7-[4-(trifluoromethyl)benzyl]-7H-purine-2-carboxylic acid]", "values": [{"measurement": "IC50", "setting": "Table 9", "result": 27.3, "unit": "nM"}]}, {"smiles": "C[C@@H](Nc1nc(-c2noc(=O)[nH]2)nc2nc(C3(F)CCC3)n(C[C@H]3CC[C@H](C)CC3)c12)C1CCC1", "note": "[Example 22.68, 3-(6-{[(1R)-1-cyclobutylethyl]amino}-8-(1-fluorocyclobutyl)-7-[(trans-4-methylcyclohexyl)methyl] -7H-purin-2-yl)-1,2,4-oxadiazol-5(4H)-one]", "values": [{"measurement": "IC50", "setting": "Table 22", "result": 16.9, "unit": "nM"}]}, {"smiles": "C[C@@H](Nc1nc(C(=O)O)nc2nc(C(=O)NCc3ccccc3)n(Cc3ccc(C(F)(F)F)cc3)c12)C1CCC1", "note": "[Example 10.18, (R)-8-(Benzylcarbamoyl)-6-((1-cyclobutylethyl)amino)-7-(4-(trifluoromethyl)benzyl)-7H-purine-2-carboxylic acid]", "values": [{"measurement": "IC50", "setting": "Table 10", "result": 58.9, "unit": "nM"}]}, {"smiles": "C[C@H]1CC[C@H](Cn2c(N3CCO[C@H]4CCC[C@@H]43)nc3nc(-c4noc(=O)[nH]4)nc(-c4cncc(Cl)c4)c32)CC1", "note": "[Example 16.86, 3-{6-(5-chloropyridin-3-yl)-8-[(4aS,7aS)-hexahydrocyclopenta [b][1,4]oxazin-4(4aH)-yl]-7-[(trans-4-methylcyclohexyl)methyl]-7H-purin-2-yl}-1,2,4-oxadiazol-5(4H)-one]", "values": [{"measurement": "IC50", "setting": "[1]", "result": 344, "unit": "nM"}]}, {"smiles": "Cc1cccc(-c2nc3nc(C(=O)O)nc(N4Cc5ccccc5C4)c3n2Cc2ccc(C(F)(F)F)cc2)c1", "note": "[Example 6.66, 6-(1,3-dihydro-2H-isoindol-2-yl)-8-(3-methylphenyl)-7-[4-(trifluoromethyl)benzyl]-7H-purine-2-carboxylic acid]", "values": [{"measurement": "inhibition at 1 µM", "setting": "read-out: inh. at 1000 nM (FRET)", "result": 46, "unit": "%"}]}, {"smiles": "CC[C@@H](c1ccccc1)N(C)c1nc2nc(C(=O)O)nc(N[C@H](C)C3CCC3)c2n1Cc1ccc(C(F)(F)F)cc1", "note": "[Example 9.58, 6-{[(1R)-1-cyclobutylethyl]amino}-8-{methyl[(1S)-1-phenylpropyl]amino}-7-[4-(trifluoromethyl)benzyl]-7H-purine-2-carboxylic acid]", "values": [{"measurement": "IC50", "setting": "Table 9", "result": 16.4, "unit": "nM"}]}, {"smiles": "C[C@@H](Nc1nc(-c2noc(=O)[nH]2)nc2nc(N3CCCC3c3ccccc3)n(C[C@H]3CC[C@H](C)CC3)c12)C1CCC1", "note": "(stereo partly drawn) [Example 11.130, 3-[6-{[(1R)-1-cyclobutylethyl]amino}-7-[(trans-4-methylcyclohexyl)methyl]-8-(2-phenylpyrrolidin-1-yl)-7H-purin-2-yl]-1,2,4-oxadiazol-5(4H)-one]", "values": [{"measurement": "IC50", "setting": "Table 11", "result": 2.05, "unit": "nM"}]}, {"smiles": "CS(=O)(=O)c1cc(Cl)cc(-c2nc(-c3noc(=O)[nH]3)nc3nc(N4CCOC[C@H]4c4ccccc4)n(C[C@H]4CC[C@H](C)CC4)c23)c1", "note": "[Example 16.111, 3-{6-[3-chloro-5-(methylsulfonyl)phenyl]-7-[(trans-4-methylcyclohexyl)methyl]-8-[(3R)-3-phenylmorpholin-4-yl]-7H-purin-2-yl}-1,2,4-oxadiazol-5(4H)-one]", "values": [{"measurement": "IC50", "setting": "[1]", "result": 2.9, "unit": "nM"}]}, {"smiles": "CC1CN(C)CCN1c1nc2nc(-c3noc(=O)[nH]3)nc(-c3cccc(Cl)c3)c2n1C[C@H]1CC[C@H](C)CC1", "note": "(relative stereo) [Example 16.53, 3-{6-(3-chlorophenyl)-8-(2,4-dimethylpiperazin-1-yl)-7-[(trans-4-methylcyclohexyl)methyl]-7H-purin-2-yl}-1,2,4-oxadiazol-5(4H)-one]", "values": [{"measurement": "IC50", "setting": "[1]", "result": 42.8, "unit": "nM"}]}, {"smiles": "COC[C@H](Nc1nc2nc(-c3noc(=O)[nH]3)nc(-c3cccc(Cl)c3)c2n1C[C@H]1CC[C@H](C)CC1)c1ccccc1", "note": "[Example 16.85, 3-{6-(3-chlorophenyl)-8-{[(1R)-2-methoxy-1-phenylethyl]amino}-7-[(trans-4-methylcyclohexyl)methyl]-7H-purin-2-yl}-1,2,4-oxadiazol-5(4H)-one]", "values": [{"measurement": "IC50", "setting": "[1]", "result": 2.87, "unit": "nM"}]}, {"smiles": "C=C(c1ccc(F)cc1)c1nc2nc(-c3noc(=O)[nH]3)nc(N[C@H](C)C3CCC3)c2n1C[C@H]1CC[C@H](C)CC1", "note": "[Example 21.30, 3-(6-{[(1R)-1-cyclobutylethyl]amino}-8-[1-(4-fluorophenyl)ethenyl]-7-[(trans-4-methylcyclohexyl)methyl]-7H-purin-2-yl)-1,2,4-oxadiazol-5(4H)-one]", "values": [{"measurement": "IC50", "setting": "Table 21", "result": 1.84, "unit": "nM"}]}, {"smiles": "C[C@@H](Nc1nc(-c2noc(=O)[nH]2)nc2nc(C3(c4cscn4)CC3)n(C[C@H]3CC[C@H](C)CC3)c12)C1CCC1", "note": "[Example 22.54, 3-(6-{[(1R)-1-cyclobutylethyl]amino}-7-[(trans-4-methylcyclohexyl)methyl] -8-[1-(1,3-thiazol-4-yl)cyclopropyl]-7H-purin-2-yl)-1,2,4-oxadiazol-5(4H)-one]", "values": [{"measurement": "IC50", "setting": "Table 22", "result": 2.26, "unit": "nM"}]}, {"smiles": "COC(c1ccccc1)c1nc2nc(-c3noc(=O)[nH]3)nc(N[C@H](C)C3CCC3)c2n1C[C@H]1CC[C@H](C)CC1", "note": "(single isomer, unassigned) [Example 22.20, 3-(6-{[(1R)-1-cyclobutylethyl]amino}-8-[(S or R)-methoxy(phenyl)methyl]-7-[(trans-4-methylcyclohexyl)methyl]-7H-purin-2-yl)-1,2,4-oxadiazol-5(4H)-one]", "values": [{"measurement": "IC50", "setting": "Table 22", "result": 1.5, "unit": "nM"}]}, {"smiles": "CC(c1ccccc1F)c1nc2nc(-c3noc(=O)[nH]3)nc(N[C@H](C)C3CCC3)c2n1C[C@H]1CC[C@H](C)CC1", "note": "(single isomer, unassigned) [Example 21.36]", "values": [{"measurement": "IC50", "setting": "Table 21", "result": 43.1, "unit": "nM"}]}, {"smiles": "CC(C)c1cc(F)nc(-c2nc3nc(-c4noc(=O)[nH]4)nc(N[C@H](C)C4CCC4)c3n2C[C@H]2CC[C@H](C)CC2)c1", "note": "[Example 15.5, 3-(6-(((R)-1-cyclobutylethyl)amino)-8-(6-fluoro-4-isopropylpyridin-2-yl)-7-((trans-4-methylcyclohexyl)methyl)-7H-purin-2-yl)-1,2,4-oxadiazol-5(2H)-one]", "values": [{"measurement": "IC50", "setting": "[1]", "result": 33.5, "unit": "nM"}]}, {"smiles": "CC(Nc1nc2nc(C(=O)O)nc(N[C@H](C)C3CCC3)c2n1Cc1ccc(C(F)(F)F)cc1)c1cccnc1", "note": "(stereo partly drawn) [Example 9.30, 6-{[(1R)-1-cyclobutylethyl]amino}-8-[(1-pyridin-3-ylethyl)amino]-7-[4-(trifluoromethyl)benzyl]-7H-purine-2-carboxylic acid]", "values": [{"measurement": "IC50", "setting": "Table 9", "result": 3.05, "unit": "nM"}]}, {"smiles": "CC(C)C(O)c1nc2nc(-c3noc(=O)[nH]3)nc(N[C@H](C)C3CCC3)c2n1C[C@H]1CC[C@H](C)CC1", "note": "(stereo partly drawn) [Example 22.45, 3-(6-{[(1R)-1-cyclobutylethyl]amino}-8-(1-hydroxy-2-methylpropyl)-7-[(trans-4-methylcyclohexyl)methyl] -7H-purin-2-yl)-1,2,4-oxadiazol-5(4H)-one]", "values": [{"measurement": "IC50", "setting": "Table 22", "result": 3.66, "unit": "nM"}]}, {"smiles": "CC(C)c1ccnc(-c2nc3nc(-c4cnn[nH]4)nc(N[C@H](C)C4CCC4)c3n2Cc2ccc(C(F)(F)F)cc2)c1", "note": "[Example 12.3, N-[(1R)-1-cyclobutylethyl]-8-[4-(propan-2-yl)pyridin-2-yl]-2-(1H-1,2,3-triazol-5-yl)-7-[4-(trifluoromethyl)benzyl]-7H-purin-6-amine]", "values": [{"measurement": "IC50", "setting": "[1]", "result": 535, "unit": "nM"}]}, {"smiles": "C[C@@H](Nc1nc(C(=O)O)nc2nc(N3CCCCC3Cc3ccc(F)cc3)n(C[C@H]3CC[C@H](C)CC3)c12)C1CCC1", "note": "(stereo partly drawn) [Example 11.56, 6-{[(1R)-1-cyclobutylethyl]amino}-8-[2-(4-fluorobenzyl)piperidin-1-yl]-7-[(trans-4-methylcyclohexyl)methyl]-7H-purine-2-carboxylic acid]", "values": [{"measurement": "IC50", "setting": "Table 11", "result": 11.6, "unit": "nM"}]}]}
